The values that follow come from patent US7589089B2, “Inhibitors for GlyT-1” (Hoffmann-La Roche Inc., priority 2006, dated 2009).

Molecules are shown by their SMILES.

In the assay the target is T1, mGlyT-1b (Mus musculus, UniProt P28571).
T1 construct: host or cells: Flp-in-CHO
T1 sequence (P28571 1-651 isoform P28571-2): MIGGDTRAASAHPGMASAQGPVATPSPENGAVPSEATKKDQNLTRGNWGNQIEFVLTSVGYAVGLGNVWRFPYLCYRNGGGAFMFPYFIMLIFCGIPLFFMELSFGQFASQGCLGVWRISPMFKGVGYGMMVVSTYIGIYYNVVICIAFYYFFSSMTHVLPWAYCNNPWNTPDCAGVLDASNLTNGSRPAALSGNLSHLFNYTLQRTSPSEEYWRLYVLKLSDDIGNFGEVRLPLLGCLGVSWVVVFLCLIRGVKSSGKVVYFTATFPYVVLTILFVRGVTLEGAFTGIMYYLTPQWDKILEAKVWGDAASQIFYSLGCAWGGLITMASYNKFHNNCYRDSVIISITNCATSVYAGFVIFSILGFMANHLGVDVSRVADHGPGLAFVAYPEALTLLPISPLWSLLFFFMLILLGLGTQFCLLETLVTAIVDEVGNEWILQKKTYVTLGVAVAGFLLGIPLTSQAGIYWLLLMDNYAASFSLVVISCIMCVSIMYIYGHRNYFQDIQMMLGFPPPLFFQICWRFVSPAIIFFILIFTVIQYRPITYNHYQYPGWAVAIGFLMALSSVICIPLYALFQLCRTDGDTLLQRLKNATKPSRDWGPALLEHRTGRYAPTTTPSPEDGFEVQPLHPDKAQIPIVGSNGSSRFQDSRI
The assay is described as follows: Glycine Uptake Inhibition Assay (mGlyT-1b). The format is cell-based. Here is the method: DMEM complete medium: Nutrient mixture F-12 (Gibco Life-technologies), fetal bovine serum (FBS) 5%, (Gibco life technologies), Penicillin/Streptomycin 1% (Gibco life technologies), Hygromycin 0.6 mg/ml (Gibco life technologies), Glutamine 1 mM Gibco life technologies)
Uptake buffer (UB): 150 mM NaCl, 10 mM Hepes-Tris, pH 7.4, 1 mM CaCl2, 2.5 mM KCl, 2.5 mM MgSO4, 10 mM (+) D-glucose.
Flp-in™-CHO (Invitrogen Cat n° R758-07) cells stably transfected with mGlyT1b cDNA.
Glycine Uptake Inhibition Assay (mGlyT-1b)
On day 1 mammalian cells, (Flp-in™-CHO), transfected with mGlyT-1b cDNA, were plated at the density of 40,000 cells/well in complete F-12 medium, without hygromycin in 96-well culture plates. On day 2, the medium was aspirated and the cells were washed twice with uptake buffer (UB). The cells were then incubated for 20 min at 22° C. with either (i) no potential competitor, (ii) 10 mM non-radioactive glycine, (iii) a concentration of a potential inhibitor. A range of concentrations of the potential inhibitor was used to generate data for calculating the concentration of inhibitor resulting in 50% of the effect (e.g. IC50, the concentration of the competitor inhibiting glycine uptake of 50%). A solution was then immediately added containing [^3H]-glycine 60 nM (11-16 Ci/mmol) and 25 μM non-radioactive glycine. The plates were incubated with gentle shaking and the reaction was stopped by aspiration of the mixture and washing (three times) with ice-cold UB. The cells were lysed with scintillation liquid, shaken 3 hours and the radioactivity in the cells was counted using a scintillation counter.
In turn, `COc1ccc(C(=O)N(CC(=O)Nc2cccc(Cl)c2)c2ccccc2)cc1` [Example 28, N-[(3-Chloro-phenylcarbamoyl)-methyl]-4-methoxy-N-phenyl-benzamide] yielded an IC50 of 267 nM.

Take `O=C(CN(Cc1cccc(F)c1F)C(=O)c1ccc(F)cc1)Nc1ccc(F)c(Cl)c1` [Example 84, N-[(3-Chloro-4-fluoro-phenylcarbamoyl)-methyl]-N-(2,3-difluoro-benzyl)-4-fluoro-benzamide]: half-maximal inhibition (IC50) was put at 178 nM.

Consider `O=C(CN(Cc1cc(F)cc(F)c1)C(=O)c1cc2ccccc2s1)Nc1cccc(F)c1` [Example 63, Benzo[b]thiophene-2-carboxylic acid (3,5-difluoro-benzyl)-[(3-fluoro-phenylcarbamoyl)-methyl]-amide], for which half-maximal inhibition (IC50) was put at 70 nM. Compared with the last molecule, the IC50 is about 2.5-fold lower.

For `COc1ccc(C(=O)N(CC(=O)Nc2ccc(Cl)c(Cl)c2)Cc2cccs2)cc1` [Example 18, N-[(3,4-Dichloro-phenylcarbamoyl)-methyl]-4-methoxy-N-thiophen-2-ylmethyl-benzamide], it took 257 nM to reach half-maximal inhibition (IC50).

Take `O=C(CN(Cc1cc(F)cc(F)c1)C(=O)c1ccc(Cl)cc1)Nc1cccc(Cl)c1` [Example 3, 4-Chloro-N-[(3-chloro-phenylcarbamoyl)-methyl]-N-(3,5-difluoro-benzyl)-benzamide]: the IC50 was 184 nM.

`O=C(CN(Cc1cccc(F)c1F)C(=O)c1ccc(Cl)cc1)Nc1cccc(Cl)c1` [Example 4, 4-Chloro-N-[(3-chloro-phenylcarbamoyl)-methyl]-N-(2,3-difluoro-benzyl)-benzamide] registered an IC50 of 74 nM.

In turn, `O=C(CN(Cc1ccccc1Cl)C(=O)c1ccc(Cl)cc1)Nc1cccc(C(F)(F)F)c1` [Example 53, 4-Chloro-N-(2-chloro-benzyl)-N-[(3-trifluoromethyl-phenylcarbamoyl)-methyl]-benzamide] displayed an IC50 of 241 nM.

The molecule `N#Cc1ccc(C(=O)N(CC(=O)Nc2ccc(F)c(Cl)c2)Cc2ccccc2Cl)cc1` [Example 77, N-(2-Chloro-benzyl)-N-[(3-chloro-4-fluoro-phenylcarbamoyl)-methyl]-4-cyano-benzamide] returned an IC50 of 182 nM.

In turn, `O=C(CN(Cc1ccccc1Cl)C(=O)c1cc2ccccc2s1)Nc1ccc(F)c(Cl)c1` [Example 72, Benzo[b]thiophene-2-carboxylic acid (2-chloro-benzyl)-[(3-chloro-4-fluoro-phenylcarbamoyl)-methyl]-amide] showed an IC50 of 205 nM.

The molecule `O=C(CN(Cc1cccc(F)c1F)C(=O)c1ccc(OC(F)(F)F)cc1)Nc1ccc(F)c(Cl)c1` [Example 83, N-[(3-Chloro-4-fluoro-phenylcarbamoyl)-methyl]-N-(2,3-difluoro-benzyl)-4-trifluoromethoxy-benzamide] showed an IC50 of 78 nM.

`O=C(CN(C(=O)c1ccccc1F)c1ccccc1)Nc1ccc(Cl)c(Cl)c1` [Example 39, N-[(3,4-Dichloro-phenylcarbamoyl)-methyl]-2-fluoro-N-phenyl-benzamide]: the IC50 worked out at 291 nM. Against the preceding molecule, the IC50 is about 3.7-fold higher.

The molecule `O=C(CN(Cc1ccccc1Cl)C(=O)c1cccc(F)c1)Nc1cccc(C(F)(F)F)c1` [Example 52, N-(2-Chloro-benzyl)-3-fluoro-N-[(3-trifluoromethyl-phenylcarbamoyl)-methyl]-benzamide] yielded an IC50 of 153 nM. This IC50 is about 1.9-fold lower than that of the molecule before.

The molecule `O=C(CN(Cc1ccc(F)c(F)c1)C(=O)c1cc2ccccc2s1)Nc1cccc(F)c1` [Example 66, Benzo[b]thiophene-2-carboxylic acid (3,4-difluoro-benzyl)-[(3-fluoro-phenylcarbamoyl)-methyl]-amide] gave an IC50 of 167 nM.

With `O=C(CN(Cc1ccccc1Cl)C(=O)c1ccc(F)cc1)Nc1ccc(F)c(Cl)c1` [Example 76, N-(2-Chloro-benzyl)-N-[(3-chloro-4-fluoro-phenylcarbamoyl)-methyl]-4-fluoro-benzamide], 159 nM corresponded to half-maximal inhibition (IC50).

For `O=C(CN(Cc1cccs1)C(=O)c1ccc(Cl)cc1)Nc1cccc(Cl)c1` [Example 17, 4-Chloro-N-[(3-chloro-phenylcarbamoyl)-methyl]-N-thiophen-2-ylmethyl-benzamide], 77 nM corresponded to half-maximal inhibition (IC50).

`COc1ccc(C(=O)N(CC(=O)Nc2cccc(Cl)c2)Cc2ccsc2)cc1` [Example 10, N-[(3-Chloro-phenylcarbamoyl)-methyl]-4-methoxy-N-thiophen-3-ylmethyl-benzamide] returned an IC50 of 285 nM.

`N#Cc1ccc(C(=O)N(CC(=O)Nc2ccc(F)c(Cl)c2)Cc2c(F)cccc2F)cc1` [Example 88, N-[(3-Chloro-4-fluoro-phenylcarbamoyl)-methyl]-4-cyano-N-(2,6-difluoro-benzyl)-benzamide] yielded an IC50 of 199 nM.

Take `N#Cc1ccc(C(=O)N(CC(=O)Nc2ccc(F)c(Cl)c2)Cc2cccc(F)c2F)cc1` [Example 85, N-[(3-Chloro-4-fluoro-phenylcarbamoyl)-methyl]-4-cyano-N-(2,3-difluoro-benzyl)-benzamide]: the IC50 is 123 nM.

The molecule `O=C(CN(Cc1ccco1)C(=O)c1ccc(Cl)cc1)Nc1cccc(Cl)c1` [Example 107, 4-Chloro-N-[(3-chloro-phenylcarbamoyl)-methyl]-N-furan-2-ylmethyl-benzamide] displayed an IC50 of 199 nM.

The molecule `O=C(CN(Cc1cc(F)cc(F)c1)C(=O)c1ccc(OC(F)(F)F)cc1)Nc1cccc(F)c1` [Example 65, N-(3,5-Difluoro-benzyl)-N-[(3-fluoro-phenylcarbamoyl)-methyl]-4-trifluoromethoxy-benzamide] had an IC50 of 278 nM.

As to `O=C(CN(Cc1cc(F)cc(F)c1)C(=O)c1ccc(Cl)cc1)Nc1ccc(F)c(Cl)c1` [Example 89, 4-Chloro-N-[(3-chloro-4-fluoro-phenylcarbamoyl)-methyl]-N-(3,5-difluoro-benzyl)-benzamide], the IC50 is 306 nM.

For `N#Cc1cccc(C(=O)N(CC(=O)Nc2ccc(Cl)c(Cl)c2)c2ccccc2)c1` [Example 31, 3-Cyano-N-[(3,4-dichloro-phenylcarbamoyl)-methyl]-N-phenyl-benzamide], the IC50 came to 350 nM.

The molecule `O=C(CN(Cc1ccccc1Cl)C(=O)c1ccc(OC(F)(F)F)cc1)Nc1cccc(F)c1` [Example 60, N-(2-Chloro-benzyl)-N-[(3-fluoro-phenylcarbamoyl)-methyl]-4-trifluoromethoxy-benzamide] came in with an IC50 of 107 nM.

Molecule `COc1ccc(C(=O)N(CC(=O)Nc2cccc(C(F)(F)F)c2)c2ccccc2)cc1` [Example 27, 4-Methoxy-N-phenyl-N-[(3-trifluoromethyl-phenylcarbamoyl)-methyl]-benzamide] came in with an IC50 of 148 nM.

As for `O=C(CN(Cc1c(F)cccc1F)C(=O)c1ccc(OC(F)(F)F)cc1)Nc1ccc(F)c(Cl)c1` [Example 71, N-[(3-Chloro-4-fluoro-phenylcarbamoyl)-methyl]-N-(2,6-difluoro-benzyl)-4-trifluoromethoxy-benzamide], inhibition was half-maximal at 107 nM (IC50).

Molecule `N#Cc1ccc(C(=O)N(CC(=O)Nc2cccc(C(F)(F)F)c2)Cc2ccccc2Cl)cc1` [Example 43, N-(2-Chloro-benzyl)-4-cyano-N-[(3-trifluoromethyl-phenylcarbamoyl)-methyl]-benzamide] displayed an IC50 of 339 nM. This IC50 is about 3.2-fold higher than that of the molecule before.

On to `COc1ccc(C(=O)N(CC(=O)Nc2cccc(Cl)c2)Cc2c(Cl)cccc2Cl)cc1` [Example 19, N-[(3-Chloro-phenylcarbamoyl)-methyl]-N-(2,6-dichloro-benzyl)-4-methoxy-benzamide], for which the concentration for half-maximal inhibition (IC50) turned out to be 164 nM.

The molecule `O=C(CN(Cc1cccc(F)c1F)C(=O)c1cc2ccccc2s1)Nc1ccc(F)c(Cl)c1` [Example 80, Benzo[b]thiophene-2-carboxylic acid [(3-chloro-4-fluoro-phenylcarbamoyl)-methyl]-(2,3-difluoro-benzyl)-amide] displayed an IC50 of 66 nM.

As for `O=C(CN(C(=O)c1cc2ccccc2s1)c1ccccc1)Nc1ccc(Cl)c(Cl)c1` [Example 113, Benzo[b]thiophene-2-carboxylic acid [(3,4-dichloro-phenylcarbamoyl)-methyl]-phenyl-amide], the IC50 is 150 nM.

For `COc1ccc(C(=O)N(CC(=O)Nc2cccc(Cl)c2)Cc2cc(Cl)cc(Cl)c2)cc1` [Example 12, N-[(3-Chloro-phenylcarbamoyl)-methyl]-N-(3,5-dichloro-benzyl)-4-methoxy-benzamide], 243 nM corresponded to half-maximal inhibition (IC50).
